Source: ChEMBL document CHEMBL2150945, “Synthesis and biological evaluation of novel piperazine derivatives of flavone as potent anti-inflammatory and antimicrobial agent” (2012)
Values after ≈ are worked out from the molar mass of the structure shown.

Key:
Aspergillus flavus [1] = experiment: Ratio of miconazole MIC to compound MIC for Aspergillus flavus MTCC 277; format: functional
Aspergillus niger [2] = experiment: Antifungal activity against Aspergillus niger MTCC 281 after 2 to 3 days by modified agar well diffusion method; format: functional
Bacillus subtilis [3] = experiment: Antibacterial activity against Bacillus subtilis MTCC 441 after 24 hrs by modified agar well diffusion method; format: functional; conditions: MTCC 441, 24 h
Salmonella typhimurium [4] = experiment: Ratio of ciprofloxacin MIC to compound MIC for Salmonella typhimurium MTCC 98; format: functional, Salmonella enterica subsp. enterica serovar Typhimurium
Fusarium solani [5] = experiment: Ratio of miconazole MIC to compound MIC for Fusarium solani MTCC 350; format: functional
THP-1 [6] = experiment: Antiinflammatory activity in human PMA-activated THP1 cells assessed as inhibition of LPS-induced IL6 production at 10 uM incubated for 30 mins prior to LPS-challenge measured after 24 hrs by ELISA relative to control; format: functional
Aspergillus niger [7] = experiment: Ratio of miconazole MIC to compound MIC for Aspergillus niger MTCC 281; format: functional
Candida albicans [8] = experiment: Ratio of miconazole MIC to compound MIC for Candida albicans MTCC 227; format: functional
Fusarium solani [9] = experiment: Antifungal activity against Fusarium solani MTCC 350 after 2 to 3 days by modified agar well diffusion method; format: functional
Bacillus subtilis [10] = experiment: Ratio of ciprofloxacin MIC to compound MIC for Bacillus subtilis MTCC 441; format: functional
Aspergillus flavus [11] = experiment: Antifungal activity against Aspergillus flavus MTCC 277 after 2 to 3 days by modified agar well diffusion method; format: functional
Salmonella typhimurium [12] = experiment: Antibacterial activity against Salmonella typhimurium MTCC 98 after 24 hrs by modified agar well diffusion method; format: functional, Salmonella enterica subsp. enterica serovar Typhimurium; conditions: Salmonella enterica, MTCC 98, 24 h
Staphylococcus aureus [13] = experiment: Antibacterial activity against Staphylococcus aureus MTCC 96 after 24 hrs by modified agar well diffusion method; format: functional; conditions: MTCC 96, 24 h
Escherichia coli [14] = experiment: Ratio of ciprofloxacin MIC to compound MIC for Escherichia coli MTCC 443; format: functional
Escherichia coli [15] = experiment: Antibacterial activity against Escherichia coli MTCC 443 after 24 hrs by modified agar well diffusion method; format: functional; conditions: MTCC 443, 24 h
THP-1 [16] = experiment: Antiinflammatory activity in human PMA-activated THP1 cells assessed as inhibition of LPS-induced TNFalpha production at 10 uM incubated for 30 mins prior to LPS-challenge measured after 24 hrs by ELISA relative to control; format: functional
Staphylococcus aureus [17] = experiment: Ratio of ciprofloxacin MIC to compound MIC for Staphylococcus aureus MTCC 96; format: functional
Candida albicans [18] = experiment: Antifungal activity against Candida albicans MTCC 227 after 2 to 3 days by modified agar well diffusion method; format: functional
THP-1 [19] = experiment: Antiinflammatory activity in human PMA-activated THP1 cells assessed as inhibition of LPS-induced TNFalpha production at 1 uM incubated for 30 mins prior to LPS-challenge measured after 24 hrs by ELISA relative to control; format: functional
THP-1 [20] = experiment: Antiinflammatory activity in human PMA-activated THP1 cells assessed as inhibition of LPS-induced IL6 production at 1 uM incubated for 30 mins prior to LPS-challenge measured after 24 hrs by ELISA relative to control; format: functional

Row | SMILES | Ratio (Aspergillus flavus [1]) | MIC (Aspergillus niger [2]) [µg/mL] | MIC (Bacillus subtilis [3]) [µg/mL] | Ratio (Salmonella typhimurium [4]) | Ratio (Fusarium solani [5]) | inhibition at 10 µM (THP-1 [6]) [%] | Ratio (Aspergillus niger [7]) | Ratio (Candida albicans [8]) | MIC (Fusarium solani [9]) [µg/mL] | Ratio (Bacillus subtilis [10]) | MIC (Aspergillus flavus [11]) [µg/mL] | MIC (Salmonella typhimurium [12]) [µg/mL] | MIC (Staphylococcus aureus [13]) [µg/mL] | Ratio (Escherichia coli [14]) | MIC (Escherichia coli [15]) [µg/mL] | inhibition at 10 µM (THP-1 [16]) [%] | Ratio (Staphylococcus aureus [17]) | MIC (Candida albicans [18]) [µg/mL] | inhibition at 1 µM (THP-1 [19]) [%] | inhibition at 1 µM (THP-1 [20]) [%]
1 | COc1cc(OC)c2c(=O)cc(CNC3CCN(Cc4ccccc4)CC3)oc2c1 | 2 | 10 (≈ 24.5 µM) | 10 (≈ 24.5 µM) | 2 | 2 | 35 | 2 | 2 | 15 (≈ 36.7 µM) | 2 | 10 (≈ 24.5 µM) | 15 (≈ 36.7 µM) | 10 (≈ 24.5 µM) | 2 | 10 (≈ 24.5 µM) | 20 | 2 | 10 (≈ 24.5 µM) | – | –
2 | COc1ccc2oc(N3CCN(c4ccccc4)CC3)cc(=O)c2c1 | – | 85 (≈ 253 µM) | 50 (≈ 149 µM) | – | – | 60 | – | – | 80 (≈ 238 µM) | – | 95 (≈ 282 µM) | 80 (≈ 238 µM) | 75 (≈ 223 µM) | – | 80 (≈ 238 µM) | 45 | – | 90 (≈ 268 µM) | – | –
3 | COc1ccc2oc(N3CCN(c4ccccc4)CC3C#N)cc(=O)c2c1 (stereo unspecified) | 2 | 10 (≈ 27.7 µM) | 30 (≈ 83 µM) | 2 | 2 | 0 | 2 | 2 | 15 (≈ 41.5 µM) | 2 | 30 (≈ 83 µM) | 50 (≈ 138 µM) | 40 (≈ 111 µM) | 2 | 45 (≈ 125 µM) | 10 | 2 | 15 (≈ 41.5 µM) | – | –
4 | COc1ccc2oc(N3CCN(c4ncccn4)CC3)cc(=O)c2c1 | – | 70 (≈ 207 µM) | 65 (≈ 192 µM) | – | – | 87 | – | – | 95 (≈ 281 µM) | – | 85 (≈ 251 µM) | 80 (≈ 236 µM) | 80 (≈ 236 µM) | – | 80 (≈ 236 µM) | 82 | – | 85 (≈ 251 µM) | – | –
5 | COc1ccc2oc(N3CCN(Cc4ccccc4)CC3)cc(=O)c2c1 | – | 30 (≈ 85.6 µM) | 55 (≈ 157 µM) | – | – | 0 | – | – | 45 (≈ 128 µM) | – | 65 (≈ 185 µM) | 65 (≈ 185 µM) | 70 (≈ 200 µM) | – | 65 (≈ 185 µM) | 0 | – | 55 (≈ 157 µM) | – | –
6 | CCN1CCN(c2cc(=O)c3cc(OC)ccc3o2)CC1 | – | 60 (≈ 208 µM) | 80 (≈ 277 µM) | – | – | 40 | – | – | 70 (≈ 243 µM) | – | 70 (≈ 243 µM) | – | 90 (≈ 312 µM) | – | – | 30 | – | 75 (≈ 260 µM) | – | –
7 | COc1ccc2oc(N3CCN(C)CC3)cc(=O)c2c1 | – | 90 (≈ 328 µM) | 45 (≈ 164 µM) | – | – | 35 | – | – | – | – | – | 65 (≈ 237 µM) | 50 (≈ 182 µM) | – | 40 (≈ 146 µM) | 25 | – | 90 (≈ 328 µM) | – | –
8 | COc1ccc(N2CCN(c3cc(=O)c4cc(OC)ccc4o3)CC2)cc1 | – | 75 (≈ 205 µM) | 45 (≈ 123 µM) | – | – | 83 | – | – | 85 (≈ 232 µM) | – | 90 (≈ 246 µM) | 80 (≈ 218 µM) | 60 (≈ 164 µM) | – | 75 (≈ 205 µM) | 79 | – | 95 (≈ 259 µM) | – | –
9 | COc1ccc2oc(NCCN3CCCC3)cc(=O)c2c1 | 2 | 10 (≈ 34.7 µM) | 10 (≈ 34.7 µM) | 2 | 2 | 20 | 2 | 2 | 10 (≈ 34.7 µM) | 2 | 15 (≈ 52 µM) | 10 (≈ 34.7 µM) | 20 (≈ 69.4 µM) | 2 | 15 (≈ 52 µM) | 5 | 2 | 10 (≈ 34.7 µM) | – | –
10 | COc1ccc2oc(NC3CCN(Cc4ccccc4)CC3)cc(=O)c2c1 | 2 | 10 (≈ 27.4 µM) | 10 (≈ 27.4 µM) | 2 | 2 | 15 | 2 | 2 | 10 (≈ 27.4 µM) | 2 | 15 (≈ 41.2 µM) | 10 (≈ 27.4 µM) | 10 (≈ 27.4 µM) | 2 | 10 (≈ 27.4 µM) | 10 | 2 | 15 (≈ 41.2 µM) | – | –
11 | COc1cc(OC)c2c(=O)cc(CN3CCN(c4ccccc4)CC3)oc2c1 | – | 90 (≈ 237 µM) | 90 (≈ 237 µM) | – | – | 50 | – | – | 95 (≈ 250 µM) | – | 85 (≈ 223 µM) | 90 (≈ 237 µM) | 90 (≈ 237 µM) | – | 90 (≈ 237 µM) | 45 | – | 80 (≈ 210 µM) | – | –
12 | COc1ccc(N2CCN(Cc3cc(=O)c4c(OC)cc(OC)cc4o3)CC2)cc1 | – | 80 (≈ 195 µM) | 40 (≈ 97.4 µM) | – | – | 93 | – | – | 75 (≈ 183 µM) | – | 85 (≈ 207 µM) | 65 (≈ 158 µM) | 65 (≈ 158 µM) | – | 70 (≈ 171 µM) | 85 | – | 95 (≈ 231 µM) | – | –
13 | COc1cc(OC)c2c(=O)cc(CN3CCN(c4ccccn4)CC3)oc2c1 | – | 95 (≈ 249 µM) | 85 (≈ 223 µM) | – | – | 70 | – | – | 90 (≈ 236 µM) | – | 95 (≈ 249 µM) | – | – | – | – | 65 | – | 85 (≈ 223 µM) | – | –
14 | COc1cc(OC)c2c(=O)cc(CN3CCN(c4ncccn4)CC3)oc2c1 | – | 75 (≈ 196 µM) | – | – | – | 93 | – | – | 65 (≈ 170 µM) | – | 95 (≈ 248 µM) | 90 (≈ 235 µM) | – | – | 90 (≈ 235 µM) | 87 | – | 90 (≈ 235 µM) | – | –
15 | COc1cc(OC)c2c(=O)cc(CN3CCN(C(C)=O)CC3)oc2c1 | – | 60 (≈ 173 µM) | 60 (≈ 173 µM) | – | – | 0 | – | – | 85 (≈ 245 µM) | – | 90 (≈ 260 µM) | 90 (≈ 260 µM) | 80 (≈ 231 µM) | – | 95 (≈ 274 µM) | 0 | – | 75 (≈ 217 µM) | – | –
16 | COc1cc(OC)c2c(=O)cc(CN3CCN(C)CC3)oc2c1 | – | 55 (≈ 173 µM) | 45 (≈ 141 µM) | – | – | 0 | – | – | 75 (≈ 236 µM) | – | 75 (≈ 236 µM) | 90 (≈ 283 µM) | 60 (≈ 188 µM) | – | 90 (≈ 283 µM) | 10 | – | 70 (≈ 220 µM) | – | –
17 | CCN1CCN(Cc2cc(=O)c3c(OC)cc(OC)cc3o2)CC1 | – | 35 (≈ 105 µM) | 65 (≈ 196 µM) | – | – | 30 | – | – | 45 (≈ 135 µM) | – | 60 (≈ 181 µM) | 70 (≈ 211 µM) | 75 (≈ 226 µM) | – | 70 (≈ 211 µM) | 20 | – | 55 (≈ 165 µM) | – | –
18 | COc1cc(OC)c2c(=O)cc(CN3CCOCC3)oc2c1 | – | 80 (≈ 262 µM) | 90 (≈ 295 µM) | – | – | 91 | – | – | 85 (≈ 278 µM) | – | 90 (≈ 295 µM) | – | – | – | – | 85 | – | 85 (≈ 278 µM) | – | –
19 | COc1cc(OC)c2c(=O)cc(CN3CCN(C/C=C/c4ccccc4)CC3)oc2c1 | 2 | – | 10 (≈ 23.8 µM) | 2 | 2 | 25 | 2 | 2 | – | 2 | – | 10 (≈ 23.8 µM) | 20 (≈ 47.6 µM) | 2 | 15 (≈ 35.7 µM) | 10 | 2 | 90 (≈ 214 µM) | – | –
20 | COc1ccc2oc(N3CCOCC3)cc(=O)c2c1 | – | 90 (≈ 344 µM) | 75 (≈ 287 µM) | – | – | 84 | – | – | – | – | – | 90 (≈ 344 µM) | 95 (≈ 364 µM) | – | 90 (≈ 344 µM) | 80 | – | – | – | –
21 | O=C(O)c1cn(C2CC2)c2cc(N3CCNCC3)c(F)cc2c1=O [CIPROFLOXACIN] | – | – | 25 (≈ 75.4 µM) | – | – | – | – | – | – | – | – | 25 (≈ 75.4 µM) | – | – | 15 (≈ 45.3 µM) | – | – | – | – | –
22 | C[C@@H]1C[C@H]2[C@@H]3CCC4=CC(=O)C=C[C@]4(C)[C@@]3(F)[C@@H](O)C[C@]2(C)[C@@]1(O)C(=O)CO [DEXAMETHASONE] | – | – | – | – | – | – | – | – | – | – | – | – | – | – | – | – | – | – | 71 | 84
23 | Clc1ccc(COC(Cn2ccnc2)c2ccc(Cl)cc2Cl)c(Cl)c1 (stereo unspecified) [MICONAZOLE] | – | 20 (≈ 48.1 µM) | – | – | – | – | – | – | 15 (≈ 36 µM) | – | 20 (≈ 48.1 µM) | – | – | – | – | – | – | 25 (≈ 60.1 µM) | – | –
